Experimental findings from ChEMBL document CHEMBL1151122, “Diterpenoids from the roots of Salvia hypargeia” (1988) are described below.

What is called MIC is the smallest concentration in the dilution series that meets the test's criterion for growth inhibition. Lower therefore signals a more susceptible organism.

Each structure is given as a SMILES string. In brackets after ≈: the same amount, converted by molar mass. Activity calls are given as the source filed them.

In assay [1] the test system is Staphylococcus aureus. Nature of the assay: Antibacterial activity against Staphylococcus aureus ATCC 6538. The class given is functional, organism-based.
Assay [2] has as its system Staphylococcus epidermidis. Nature of the assay: Antibacterial activity against Staphylococcus epidermidis ATCC 12228. Format: functional, organism-based.
The subject of assay [3] is Pseudomonas aeruginosa. Nature of the assay: Antibacterial activity against Pseudomonas aeruginosa ATCC 1539. Format: functional, organism-based.
For assay [4], the system named is Bacillus subtilis. Briefly: Antibacterial activity against Bacillus subtilis ATCC 6633. The class given is functional, organism-based.
Assay [5] deals with Klebsiella pneumoniae. Nature of the assay: Antibacterial activity against Klebsiella pneumoniae UC 57. The class given is functional, organism-based.
Assay [6] concerns Staphylococcus aureus. Nature of the assay: Antibacterial activity against Staphylococcus aureus ATCC 6538 by disk diffusion method. The class given is functional. In general terms: Agar diffusion results depend on both activity and mobility in agar.
For assay [7], the system named is Staphylococcus epidermidis. Briefly: Antibacterial activity against Staphylococcus epidermidis ATCC 12228 by disk diffusion method. Format: functional.
The subject of assay [8] is Pseudomonas aeruginosa. Nature of the assay: Antibacterial activity against Pseudomonas aeruginosa ATCC 1539 by disk diffusion method. Format: functional.
In assay [9] the test system is Bacillus subtilis. Briefly: Antibacterial activity against Bacillus subtilis ATCC 6633 by disk diffusion method. Format: functional.
The subject of assay [10] is Klebsiella pneumoniae. Nature of the assay: Antibacterial activity against Klebsiella pneumoniae UC 57 by disk diffusion method. Format: functional.
Assay [11] has as its system Staphylococcus aureus. Nature of the assay: Antibacterial activity against Staphylococcus aureus ATCC 6538 by tube dilution method. The class given is functional.
The test system of assay [12] is Klebsiella pneumoniae. Nature of the assay: Antibacterial activity against Klebsiella pneumoniae UC 57 by tube dilution method. The class given is functional.
Assay [13] relates to Bacillus subtilis. Briefly: Antibacterial activity against Bacillus subtilis ATCC 6633 by tube dilution method. The class given is functional.
Assay [14] concerns Staphylococcus epidermidis. Briefly: Antibacterial activity against Staphylococcus epidermidis ATCC 12228 by tube dilution method. Format: functional.
Assay [15] has as its system Pseudomonas aeruginosa. Briefly: Antibacterial activity against Pseudomonas aeruginosa ATCC 1539 by tube dilution method. The class given is functional.
Assay [16] deals with Mycobacterium tuberculosis. Briefly: Antitubercular activity against Mycobacterium tuberculosis H37Rv at 250 ug/ml. Format: functional, organism-based.

As for `CC(C)c1ccc2c(c1O)C[C@@H](O)[C@H]1C(C)(C)CCC(=O)[C@]21C`, the outcome in assay [1], in assay [2], in assay [3], in assay [4] and in assay [5] was inactive.

As for `CC(C)c1cc2c(cc1O)[C@@]1(C)C(=O)CCC(C)(C)[C@@H]1[C@H](O)C2=O` [HYPARGENIN A], the “inhibition zone (IZ)” value in assay [6], in assay [7], in assay [8], in assay [9] and in assay [10] was over 7 mm throughout. Also, the minimum inhibitory concentration (MIC) in [11] and in assay [12] was 15.6 µg/mL (≈ 47.2 µM) throughout.

Regarding `CC(C)(O)c1cc2c(cc1O)[C@@]1(C)CCCC(C)(C)[C@@H]1CC2=O` [HYPARGENIN B], the “inhibition zone (IZ)” value in assay [6], in assay [7], in [8], in [9] and in [10] was over 7 mm each time. Besides, the MIC in [11] and in [12] was 125 µg/mL (≈ 395 µM) each time.

`CC(C)c1cc2c(cc1O)[C@@]1(C)CCCC(C)(C)[C@@H]1C(=O)C2=O` [HYPARGENIN C]: the “inhibition zone (IZ)” value in [6], in assay [7], in [8], in assay [9] and in assay [10] was over 7 mm each time. The MIC is 125 µg/mL (≈ 398 µM) in assay [11] and 15.6 µg/mL (≈ 49.6 µM) in [13].

Turning to `CC(C)c1cc2c(cc1O)[C@@]1(C)CCC(=O)C(C)(C)[C@@H]1C=C2` [HYPARGENIN D], the “inhibition zone (IZ)” value in assay [6], in [7], in assay [8], in assay [9] and in [10] was over 7 mm each time. Further, the MIC in [13] came out at 62.5 µg/mL (≈ 209 µM).

With `CC(C)C1=C(O)C(=O)C2=C(C=CC3(O)C(C)(C)CCC[C@]23C)C1=O` (stereo partly specified) [HYPARGENIN F], the “inhibition zone (IZ)” value in assay [6], in assay [7], in assay [8], in assay [9] and in assay [10] was over 7 mm throughout. Further, the MIC came out at 125 µg/mL (≈ 378 µM) in assay [11], 62.5 µg/mL (≈ 189 µM) in assay [14] and 125 µg/mL (≈ 378 µM) in [15]. The result in assay [16] was Active.
